In ChEMBL document CHEMBL4130462, “Natural isoflavone biochanin A as a template for the design of new and potent 3-phenylquinolone efflux inhibitors against Mycobacterium avium” (Eur J Med Chem, 2017):
In brackets after ≈: the same amount, converted by molar mass.

What was measured:
Mycobacterium avium [1] = details: 104
Mycobacterium avium [2] = details: isolate MAV3
Mycobacterium avium [3] = details: isolate MAV3; remark: listed apart in the source
Mycobacterium avium [4] = details: 104; remark: listed apart in the source
Mycobacterium avium [5] = details: isolate MAV2
Description: Inhibition of multidrug resistance efflux pump in Mycobacterium avium isolate MAV2 assessed as potentiation of clarithromycin -induced antibacterial activity by measuring clarithromycin MIC at 1/4 MIC incubated for 3 days by MTT assay (Rvb = >1024 ug/ml)

Mycobacterium avium [6] = details: isolate MAV4
Mycobacterium avium [7] = details: isolate MAV4; remark: listed apart in the source
Mycobacterium avium [8] = details: 72 h
Description: Antimycobacterial activity against Mycobacterium avium 104 assessed as reduction in bacterial viability incubated for 3 days by MTT assay

Mycobacterium avium [9] = details: isolate MAV3; remark: listed apart in the source
Mycobacterium avium [10] = details: 104 mc'2 3
Mycobacterium avium [11] = details: 104 mc'2 4
Mycobacterium avium [12] = details: isolate MAV1
Mycobacterium avium [13] = details: isolate MAV4; remark: listed apart in the source
Mycobacterium avium [14] = details: isolate MAV1; remark: listed apart in the source
Mycobacterium avium [15] = details: isolate MAV3; remark: listed apart in the source
[16] = Safety index, ratio of CC50 for test compound to CC50 for thioridazine for cytotoxicity in human monocyte-derived macrophages; assay type: cell-based, Macrophage cell line
[17] = Safety index, ratio of CC50 for test compound to CC50 for chlorpromazine for cytotoxicity in human monocyte-derived macrophages; assay type: cell-based, Macrophage cell line
Mycobacterium avium [18] = details: 104 mc'2 4; remark: listed apart in the source
Mycobacterium avium [19] = details: 104; remark: listed apart in the source
Mycobacterium avium [20] = details: isolate MAV3; remark: listed apart in the source
Mycobacterium avium [21] = details: 104; remark: listed apart in the source
Mycobacterium avium [22] = details: isolate MAV2; remark: listed apart in the source
Description: Inhibition of multidrug resistance efflux pump in Mycobacterium avium isolate MAV2 assessed as potentiation of ofloxacin-induced antibacterial activity by measuring ofloxacin MIC at 1/2 MIC incubated for 3 days by MTT assay

[23] = system: Mycobacterium avium subsp. avium ATCC 25291
Mycobacterium avium [24] = details: 104 mc'2 4; remark: listed apart in the source
Mycobacterium avium [25] = details: isolate MAV2; remark: listed apart in the source
[26] = system: Mycobacterium avium subsp. avium ATCC 25291; remark: listed apart in the source
[27] = system: Mycobacterium avium subsp. avium ATCC 25291; remark: listed apart in the source
Description: Inhibition of multidrug resistance efflux pump in Mycobacterium avium ATCC 25291 assessed as potentiation of clarithromycin -induced antibacterial activity by measuring clarithromycin MIC at 1/4 MIC incubated for 3 days by MTT assay

Mycobacterium avium [28] = details: 104 mc'2 3; remark: listed apart in the source
Mycobacterium avium [29] = details: 104 mc'2 3; remark: listed apart in the source
Mycobacterium avium [30] = details: 104 mc'2 4; remark: listed apart in the source
Mycobacterium avium [31] = details: isolate MAV1; remark: listed apart in the source
Mycobacterium avium [32] = details: isolate MAV2; remark: listed apart in the source
Mycobacterium avium [33] = details: isolate MAV1; remark: listed apart in the source
Description: Inhibition of multidrug resistance efflux pump in Mycobacterium avium isolate MAV1 assessed as potentiation of ciprofloxacin-induced antibacterial activity by measuring ciprofloxacin MIC at 1/2 MIC incubated for 3 days by MTT assay (Rvb = 2 ug/ml)

Mycobacterium avium [34] = details: 104 mc'2 3; remark: listed apart in the source
[35] = Safety index, ratio of MTC for test compound to MTC for thioridazine for cytotoxicity in human monocyte-derived macrophages; assay type: cell-based, Macrophage cell line
[36] = Cytotoxicity in human monocyte-derived macrophages assessed as reduction in cell viability incubated for 3 days by alamar blue dye based assay; set-up: species or system Macrophage cell line; details: for CC50 at 72 h: human monocyte-derived macrophages; for MTC: macrophage cell line, 72 h
Mycobacterium avium [37] = details: isolate MAV1; remark: listed apart in the source
Description: Inhibition of multidrug resistance efflux pump in Mycobacterium avium isolate MAV1 assessed as potentiation of ciprofloxacin-induced antibacterial activity by measuring ciprofloxacin MIC at 1/4 MIC incubated for 3 days by MTT assay

Mycobacterium avium [38] = details: isolate MAV2; remark: listed apart in the source
Mycobacterium avium [39] = details: isolate MAV4; remark: listed apart in the source
Mycobacterium avium [40] = details: isolate MAV2; remark: listed apart in the source
Mycobacterium avium [41] = details: 104 mc'2 3; remark: listed apart in the source
Mycobacterium avium [42] = details: isolate MAV4; remark: listed apart in the source
Description: Inhibition of multidrug resistance efflux pump in Mycobacterium avium isolate MAV4 assessed as potentiation of clarithromycin -induced antibacterial activity by measuring clarithromycin MIC at 1/2 MIC incubated for 3 days by MTT assay

[43] = system: Mycobacterium avium subsp. avium ATCC 25291; remark: listed apart in the source
Description: Inhibition of multidrug resistance efflux pump in Mycobacterium avium ATCC 25291 assessed as potentiation of ethidium bromide-induced antibacterial activity by measuring ethidium bromide MIC at 1/4 MIC incubated for 3 days by MTT assay

Mycobacterium avium [44] = details: 104; remark: listed apart in the source

CCCOc1ccc(-c2cn(CCN3CCCCC3)c3ccccc3c2=O)cc1
MIC (Mycobacterium avium [1]): < 0.125 µg/mL
MIC (Mycobacterium avium [2]): 32 µg/mL (≈ 81.9 µM)
MIC (Mycobacterium avium [3]): 64 µg/mL (≈ 164 µM)
MIC (Mycobacterium avium [4]): < 0.195 µg/mL
MIC (Mycobacterium avium [5]): 512 µg/mL (≈ 1310 µM)
MIC (Mycobacterium avium [6]): < 4 µg/mL
MIC (Mycobacterium avium [7]): < 4 µg/mL
MIC (Mycobacterium avium [8]): > 256 µg/mL
MIC (Mycobacterium avium [9]): 0.5 µg/mL (≈ 1.28 µM)
MIC (Mycobacterium avium [10]): 256 µg/mL (≈ 656 µM)
MIC (Mycobacterium avium [11]): < 0.125 µg/mL
MIC (Mycobacterium avium [12]): < 4 µg/mL
MIC (Mycobacterium avium [13]): 4 µg/mL (≈ 10.2 µM)
MIC (Mycobacterium avium [14]): < 4 µg/mL
MIC (Mycobacterium avium [15]): 8 µg/mL (≈ 20.5 µM)
selectivity ratio [16]: 4 to 6
selectivity ratio [17]: 2 to 4
MIC (Mycobacterium avium [18]): < 0.125 µg/mL
MIC (Mycobacterium avium [19]): < 0.125 µg/mL
MIC (Mycobacterium avium [20]): 3.12 µg/mL (≈ 8 µM)
MIC (Mycobacterium avium [21]): < 0.195 µg/mL
MIC (Mycobacterium avium [22]): 2 µg/mL (≈ 5.12 µM)
MIC [23]: 8 µg/mL (≈ 20.5 µM)
MIC (Mycobacterium avium [24]): < 0.195 µg/mL
MIC (Mycobacterium avium [25]): 256 µg/mL (≈ 656 µM)
MIC [26]: 8 µg/mL (≈ 20.5 µM)
MIC [27]: 4 µg/mL (≈ 10.2 µM)
MIC (Mycobacterium avium [28]): < 0.195 µg/mL
MIC (Mycobacterium avium [29]): < 0.125 µg/mL
MIC (Mycobacterium avium [30]): < 4 µg/mL
MIC (Mycobacterium avium [31]): < 4 µg/mL
MIC (Mycobacterium avium [32]): 512 µg/mL (≈ 1310 µM)
MIC (Mycobacterium avium [33]): < 0.031 µg/mL
MIC (Mycobacterium avium [34]): 2 µg/mL (≈ 5.12 µM)
selectivity ratio [35]: 4 to 6
CC50 at 72 h [36]: 82.2 µM
MTC [36]: 40 µM
MIC (Mycobacterium avium [37]): 2 µg/mL (≈ 5.12 µM)
MIC (Mycobacterium avium [38]): 6.25 µg/mL (≈ 16 µM)
MIC (Mycobacterium avium [39]): < 0.125 µg/mL
MIC (Mycobacterium avium [40]): 256 µg/mL (≈ 656 µM)
MIC (Mycobacterium avium [41]): 8 µg/mL (≈ 20.5 µM)
MIC (Mycobacterium avium [42]): < 0.0625 µg/mL
MIC [43]: 12.5 µg/mL (≈ 32 µM)
MIC (Mycobacterium avium [44]): < 0.125 µg/mL

CN(C)CCCN1c2ccccc2Sc2ccc(Cl)cc21 [CHLORPROMAZINE]
MIC (Mycobacterium avium [1]): < 4 µg/mL
MIC (Mycobacterium avium [2]): 64 µg/mL (≈ 201 µM)
MIC (Mycobacterium avium [3]): 128 µg/mL (≈ 401 µM)
MIC (Mycobacterium avium [4]): 6.25 µg/mL (≈ 19.6 µM)
MIC (Mycobacterium avium [5]): > 512 µg/mL
MIC (Mycobacterium avium [6]): 128 µg/mL (≈ 401 µM)
MIC (Mycobacterium avium [7]): 16 µg/mL (≈ 50.2 µM)
MIC (Mycobacterium avium [8]): 30 µg/mL (≈ 94.1 µM)
MIC (Mycobacterium avium [9]): 0.5 µg/mL (≈ 1.57 µM)
MIC (Mycobacterium avium [10]): > 512 µg/mL
MIC (Mycobacterium avium [11]): 1 µg/mL (≈ 3.14 µM)
MIC (Mycobacterium avium [12]): < 4 µg/mL
MIC (Mycobacterium avium [13]): 44 µg/mL (≈ 138 µM)
MIC (Mycobacterium avium [14]): 32 µg/mL (≈ 100 µM)
MIC (Mycobacterium avium [15]): 16 µg/mL (≈ 50.2 µM)
MIC (Mycobacterium avium [18]): 0.25 µg/mL (≈ 0.784 µM)
MIC (Mycobacterium avium [19]): 1 µg/mL (≈ 3.14 µM)
MIC (Mycobacterium avium [20]): 3.12 µg/mL (≈ 9.8 µM)
MIC (Mycobacterium avium [21]): 3.12 µg/mL (≈ 9.8 µM)
MIC (Mycobacterium avium [22]): 1 µg/mL (≈ 3.14 µM)
MIC [23]: 16 µg/mL (≈ 50.2 µM)
MIC (Mycobacterium avium [24]): 0.39 µg/mL (≈ 1.22 µM)
MIC (Mycobacterium avium [25]): > 512 µg/mL
MIC [26]: 8 µg/mL (≈ 25.1 µM)
MIC [27]: 1 µg/mL (≈ 3.14 µM)
MIC (Mycobacterium avium [28]): 0.78 µg/mL (≈ 2.45 µM)
MIC (Mycobacterium avium [29]): 1 µg/mL (≈ 3.14 µM)
MIC (Mycobacterium avium [30]): 512 µg/mL (≈ 1610 µM)
MIC (Mycobacterium avium [31]): < 4 µg/mL
MIC (Mycobacterium avium [32]): > 512 µg/mL
MIC (Mycobacterium avium [33]): < 0.031 µg/mL
MIC (Mycobacterium avium [34]): 4 µg/mL (≈ 12.5 µM)
CC50 at 72 h [36]: 22.2 µM
MTC [36]: 1.25 µM
MIC (Mycobacterium avium [37]): 1 µg/mL (≈ 3.14 µM)
MIC (Mycobacterium avium [38]): 12.5 µg/mL (≈ 39.2 µM)
MIC (Mycobacterium avium [39]): 2 µg/mL (≈ 6.27 µM)
MIC (Mycobacterium avium [40]): > 512 µg/mL
MIC (Mycobacterium avium [41]): 8 µg/mL (≈ 25.1 µM)
MIC (Mycobacterium avium [42]): 0.5 µg/mL (≈ 1.57 µM)
MIC [43]: 12.5 µg/mL (≈ 39.2 µM)
MIC (Mycobacterium avium [44]): 2 µg/mL (≈ 6.27 µM)

CSc1ccc2c(c1)N(CCC1CCCCN1C)c1ccccc1S2 (centres undefined) [THIORIDAZINE]
MIC (Mycobacterium avium [1]): 32 µg/mL (≈ 86.3 µM)
MIC (Mycobacterium avium [2]): 128 µg/mL (≈ 345 µM)
MIC (Mycobacterium avium [3]): 128 µg/mL (≈ 345 µM)
MIC (Mycobacterium avium [4]): 12.5 µg/mL (≈ 33.7 µM)
MIC (Mycobacterium avium [5]): > 512 µg/mL
MIC (Mycobacterium avium [6]): 256 µg/mL (≈ 691 µM)
MIC (Mycobacterium avium [7]): 64 µg/mL (≈ 173 µM)
MIC (Mycobacterium avium [8]): 30 µg/mL (≈ 81 µM)
MIC (Mycobacterium avium [9]): 2 µg/mL (≈ 5.4 µM)
MIC (Mycobacterium avium [10]): > 512 µg/mL
MIC (Mycobacterium avium [11]): 0.25 µg/mL (≈ 0.675 µM)
MIC (Mycobacterium avium [12]): < 4 µg/mL
MIC (Mycobacterium avium [13]): 16 µg/mL (≈ 43.2 µM)
MIC (Mycobacterium avium [14]): 16 µg/mL (≈ 43.2 µM)
MIC (Mycobacterium avium [15]): 64 µg/mL (≈ 173 µM)
MIC (Mycobacterium avium [18]): 0.5 µg/mL (≈ 1.35 µM)
MIC (Mycobacterium avium [19]): 4 µg/mL (≈ 10.8 µM)
MIC (Mycobacterium avium [20]): 12.5 µg/mL (≈ 33.7 µM)
MIC (Mycobacterium avium [21]): 6.25 µg/mL (≈ 16.9 µM)
MIC (Mycobacterium avium [22]): 0.5 µg/mL (≈ 1.35 µM)
MIC [23]: 32 µg/mL (≈ 86.3 µM)
MIC (Mycobacterium avium [24]): 0.78 µg/mL (≈ 2.1 µM)
MIC (Mycobacterium avium [25]): 512 µg/mL (≈ 1380 µM)
MIC [26]: 16 µg/mL (≈ 43.2 µM)
MIC [27]: 2 µg/mL (≈ 5.4 µM)
MIC (Mycobacterium avium [28]): 1.56 µg/mL (≈ 4.21 µM)
MIC (Mycobacterium avium [29]): < 0.125 µg/mL
MIC (Mycobacterium avium [30]): 256 µg/mL (≈ 691 µM)
MIC (Mycobacterium avium [31]): < 4 µg/mL
MIC (Mycobacterium avium [32]): > 512 µg/mL
MIC (Mycobacterium avium [33]): < 0.031 µg/mL
MIC (Mycobacterium avium [34]): 4 µg/mL (≈ 10.8 µM)
CC50 at 72 h [36]: 13.8 µM
MTC [36]: 2.5 µM
MIC (Mycobacterium avium [37]): 0.5 µg/mL (≈ 1.35 µM)
MIC (Mycobacterium avium [38]): 12.5 µg/mL (≈ 33.7 µM)
MIC (Mycobacterium avium [39]): 4 µg/mL (≈ 10.8 µM)
MIC (Mycobacterium avium [40]): 128 µg/mL (≈ 345 µM)
MIC (Mycobacterium avium [41]): 8 µg/mL (≈ 21.6 µM)
MIC (Mycobacterium avium [42]): 1 µg/mL (≈ 2.7 µM)
MIC [43]: 25 µg/mL (≈ 67.5 µM)
MIC (Mycobacterium avium [44]): 4 µg/mL (≈ 10.8 µM)
